From patent US5587389A, “Substituted heteroarylaklylthiopyridines for controlling helicobacter bacteria” (BYK Gulden Lomberg Chemische Fabrik GmbH, priority 1993, dated 1996) come the findings set out here.

For the test, the system named is Helicobacter pylori. Put plainly: activity against Helicobacter pylori (MIC), modified method of Iwahi et al., Columbia agar, growth period of 4 days. Conditions: Columbia agar (Oxoid); for MIC: Helicobacter pylori, 96 h. It counts as cell-based. As for the experimental part:
The compounds of the formula I were tested for their activity against Helicobacter pylori following a modification of the method described by Tomoyuki Iwahi et al. (Antimicrobial Agents and Chemotherapy, 1991, 490-496) using Columbia agar (Oxoid) over a growth period of 4 days. The MIC values listed in Table 2 below were found here for the tested compounds (the compound numbers shown agree with the compound numbers in the description).

In general, MIC refers to the smallest concentration in the dilution series that meets the test's criterion for growth inhibition. Read a high MIC as weaker potency.

With `Cc1c(SCc2ccco2)ccnc1C[S+]([O-])c1nc2ccccc2[nH]1` (centres unmarked) [Compound 20, 2-{[[4-(2-Furylmethylthio)-3-methyl-2-pyridinyl]methyl]sulfinyl}-1H-benzimidazole], the MIC is not above 1 µg/mL. Same read-out and setting: as for `Cc1c(SCCCn2ccnc2)ccnc1CSc1nc2ccccc2[nH]1` [Compound 18, 2-{[[-4-[3-(Imidazol-1-yl)propylthio]-3-methyl-2-pyridinyl]methyl]thio}-1H-benzimidazole], the figure is not above 1 µg/mL; as for `Cc1c(SCc2cccs2)ccnc1CSc1nc2ccccc2[nH]1` [Compound 5, 2-{[[3-Methyl-4-(2-thienylmethylthio)-2-pyridinyl]methyl]thio}-1H-benzimidazole], not above 1 µg/mL. Compound `Cc1c(SCc2ccco2)ccnc1CSc1nc2ccccc2[nH]1` [Compound 1, 2-{[[4-(2-Furylmethylthio)-3-methyl,2-pyridinyl]methyl]thio}-1H-benzimidazole] came in with an MIC not above 1 µg/mL. On the same count and under the same terms, then `Cc1c(SCc2ccco2)ccnc1CSc1nc2ccccc2[nH]1.Cl.Cl` [Compound 12, 2-{[[4-(2-Furylmethylthio)-3-methyl-2-pyridinyl]methyl]thio}-1H-benzimidazole dihydrochloride], with not above 1 µg/mL; and `Cc1c(SCCCn2ccnc2C)ccnc1CSc1nc2ccccc2[nH]1` [Compound 19, 2-{[[4-[3-(2-Methylimidazol-1-yl)propylthio]-3-methyl-2-pyridinyl]methyl]thio}-1H-benzimidazole], with not above 1 µg/mL; and `COc1ccnc(CSc2ccnc(CSc3nc4ccccc4[nH]3)c2C)c1OC` [Compound 16, 2-{[[4-3,4-Dimethoxy-2-pyridinylmethylthiol-3-methyl-2-pyridinyl]methyl]thio}-1H-benzimidazole], with not above 1 µg/mL.

`c1csc(CSc2ccnc(CSc3nc4ccccc4[nH]3)c2)c1` [Compound 8, 2-{[[4-(2-Thienylmethylthio)-2,pyridinyl]methyl]thio}-1H-benzimidazole] showed an MIC not above 1 µg/mL. On the same count and under the same terms, as for `Cc1c(SCc2ccsc2)ccnc1CSc1nc2ccccc2[nH]1` [Compound 6, 2-{[[3-Methyl-4-(3-thienylmethylthio)-2-pyridinyl]methyl]thio}-1H-benzimidazole], the figure is not above 1 µg/mL; as for `COc1c(SCc2ccco2)ccnc1CSc1nc2ccccc2[nH]1` [Compound 2, 2-{[[4-(2-Furylmethylthio)-3-methoxy-2-pyridinyl]methyl]thio}-1H-benzimidazole], not above 1 µg/mL. On to `Cc1c(SCCc2ccccn2)ccnc1CSc1nc2ccccc2[nH]1` [Compound 17], for which the “MIC Value” is not above 1.0 µg/mL.
